Measurements reported in patent publication US20250340575A1, “4-AMINOPYRROLO[2,1-F][1,2,4]TRIAZINES AND PREPARATION AND USES THEREOF” (Biosplice Therapeutics, Inc., priority 2024, published 2025).

Molecular target: recombinant DYRK1A kinase (Homo sapiens, UniProt Q13627)
Assay: DYRK1A kinase assay (Ser/Thr 18 peptide Z-lyte FRET)
Assay type: biochemical
Conditions: DYRK1A 0.25 μg/mL, ATP 15 μM, Ser/Thr peptide 18 4 μM, one hour at room temperature, 11-point dose-response from 10 μM

Row | SMILES | IC50 [nM]
1 | COCCN1CC[C@H](Nc2nc(N)c3c(-c4ccc5nnn(CC(F)F)c5n4)ccn3n2)[C@H](F)C1 [Compound 256, 5-(3-(2,2-Difluoroethyl)-3H-[1,2,3]triazolo[4,5-b]pyridin-5-yl)-N^2-((3R,4S)-3-fluoro-1-(2-methoxyethyl)piperidin-4-yl)pyrrolo[2,1-f][1,2,4]triazine-2,4-diamine] | 3.5
2 | CC(=O)N1CC[C@@H](Nc2nc(N)c3c(-c4ccc5nccn5n4)c(F)cn3n2)C(F)(F)C1 [Compound 41, (R)-1-(4-((4-Amino-6-fluoro-5-(imidazo[1,2-b]pyridazin-6-yl)pyrrolo[2,1-f][1,2,4]triazin-2-yl)amino)-3,3-difluoropiperidin-1-yl)ethan-1-one] | 2
3 | CCn1nnc2ccc(-c3c(F)cn4nc(N[C@@H]5CCN(C)CC5(F)F)nc(NC)c34)nc21 [Compound 215, (R)—N^2-(3,3-Difluoro-1-methylpiperidin-4-yl)-5-(3-ethyl-3H-[1,2,3]triazolo [4,5-b]pyridin-5-yl)-6-fluoro-N^4-methylpyrrolo[2,1-f][1,2,4]triazine-2,4-diamine] | 2.3
4 | CN1CC[C@@H](Nc2nc(N)c3c(-c4ccc5nnn(CCF)c5n4)ccn3n2)C(F)(F)C1 [Compound 221, (R)—N^2-(3,3-Difluoro-1-methylpiperidin-4-yl)-5-(3-(2-fluoroethyl)-3H-[1,2,3]triazolo[4,5-b]pyridin-5-yl)pyrrolo[2,1-f][1,2,4]triazine-2,4-diamine] | 2.8
5 | CNc1nc(N[C@@H]2CCN(C(C)=O)CC2(F)F)nn2ccc(-c3ccc4nnn(CCF)c4n3)c12 [Compound 238, (R)-1-(3,3-Difluoro-4-((5-(3-(2-fluoroethyl)-3H-[1,2,3]triazolo[4,5-b]pyridin-5-yl)-4-(methylamino)pyrrolo[2,1-f][1,2,4]triazin-2-yl)amino)piperidin-1-yl)ethan-1-one] | 1.4
6 | CNc1nc(N[C@@H]2CCN(C(C)=O)CC2(F)F)nn2cc(F)c(-c3ccc4nc(C)n(CCF)c4n3)c12 [Compound 166, (R)-1-(3,3-Difluoro-4-((6-fluoro-5-(3-(2-fluoroethyl)-2-methyl-3H-imidazo [4,5-b]pyridin-5-yl)-4-(methylamino)pyrrolo[2,1-f][1,2,4]triazin-2-yl)amino)piperidin-1-yl)ethan-1-one] | 2.9
7 | CNc1nc(N[C@@H]2CCN(C)CC2(F)F)nn2cc(F)c(-c3ccc4nc(C)n(CCF)c4n3)c12 [Compound 165, (R)—N^2-(3,3-Difluoro-1-methylpiperidin-4-yl)-6-fluoro-5-(3-(2-fluoroethyl)-2-methyl-3H-imidazo[4,5-b]pyridin-5-yl)-N^4-methylpyrrolo[2,1-f][1,2,4]triazine-2,4-diamine] | 2.3

Molecules with a lower IC50, results first:

Row | IC50 [nM] | SMILES
8 | 1.3 | Cc1nc2ccc(-c3c(F)cn4nc(N[C@H]5CC[C@](C)(O)CC5)nc(N)c34)nc2n1CCF [Compound 143, (1r,4r)-4-((4-Amino-6-fluoro-5-(3-(2-fluoroethyl)-2-methyl-3H-imidazo[4,5-b]pyridin-5-yl)pyrrolo[2,1-f][1,2,4]triazin-2-yl)amino)-1-methylcyclohexan-1-ol]
9 | 1.3 | COCCN1CC[C@H](Nc2nc(N)c3c(-c4ccc5ncn(CC(F)(F)F)c5n4)ccn3n2)[C@H](F)C1 [Compound 126, N^2-((3R,4S)-3-Fluoro-1-(2-methoxyethyl)piperidin-4-yl)-5-(3-(2,2,2-trifluoroethyl)-3H-imidazo[4,5-b]pyridin-5-yl)pyrrolo[2,1-f][1,2,4]triazine-2,4-diamine]
10 | 0.8 | CNc1nc(N[C@H]2CC[C@](C)(O)CC2)nn2ccc(-c3ccc4nnn(CCF)c4n3)c12 [Compound 234, (1r,4r)-4-((5-(3-(2-Fluoroethyl)-3H-[1,2,3]triazolo[4,5-b]pyridin-5-yl)-4-(methylamino)pyrrolo[2,1-f][1,2,4]triazin-2-yl)amino)-1-methylcyclohexan-1-ol]
11 | 0.8 | Cc1nc2ccc(-c3c(F)cn4nc(N[C@@H]5CCN(C6COC6)CC5(F)F)nc(N)c34)nc2n1CCF [Compound 149, (R)—N^2-(3,3-Difluoro-1-(oxetan-3-yl)piperidin-4-yl)-6-fluoro-5-(3-(2-fluoroethyl)-2-methyl-3H-imidazo[4,5-b]pyridin-5-yl)pyrrolo[2,1-f][1,2,4]triazine-2,4-diamine]
